Reference: BindingDB's records for PubMed 36416208 (n/a, 2022)

Target: Serine/threonine-protein kinase PAK 1 (Homo sapiens, UniProt Q13153)
Test: Inhibition of human recombinant PAK1 assessed as phosphorylation FRET peptide substrate measured after 60 mins

Serine/threonine-protein kinase PAK 1, sequence (Q13153 whole entry): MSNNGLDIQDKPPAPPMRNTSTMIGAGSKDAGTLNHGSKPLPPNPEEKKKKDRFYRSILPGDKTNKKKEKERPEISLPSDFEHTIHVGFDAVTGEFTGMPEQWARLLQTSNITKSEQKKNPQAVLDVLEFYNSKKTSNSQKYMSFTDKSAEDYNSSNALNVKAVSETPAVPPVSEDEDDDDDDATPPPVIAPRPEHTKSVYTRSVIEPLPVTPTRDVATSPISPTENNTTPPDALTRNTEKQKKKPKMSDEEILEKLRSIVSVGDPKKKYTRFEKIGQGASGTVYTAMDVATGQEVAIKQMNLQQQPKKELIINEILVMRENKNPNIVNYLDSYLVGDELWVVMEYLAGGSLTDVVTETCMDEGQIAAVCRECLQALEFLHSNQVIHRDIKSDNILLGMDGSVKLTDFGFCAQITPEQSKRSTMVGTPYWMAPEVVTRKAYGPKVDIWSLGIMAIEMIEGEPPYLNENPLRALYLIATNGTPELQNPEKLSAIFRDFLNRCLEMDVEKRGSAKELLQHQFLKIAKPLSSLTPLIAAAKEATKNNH

- IC50: 233 nM
SMILES: CN1C(=O)CCC(N2C(=O)c3cccc(NCCCCCCCCNC(=O)N4CC[C@H](NC5=Nc6cc(F)ccc6N(CC(F)F)c6ccc(Cl)cc65)C4)c3C2=O)C1=O (stereo partly specified)
